Results published in patent publication US10407409B2, “6-(5-hydroxy-1H-pyrazol-1-yl)nicotinamide inhibitors of PHD” (Takeda Pharmaceutical Company Limited, priority 2013, dated 2019).

Columns and labels:
[1] = molecular target: PHD2 enzyme (residues 181-417) (Homo sapiens (Human), UniProt Q9GZT9); experiment: Inhibition of PHD enzyme (LC/MS peptide hydroxylation assay); assay type: biochemical; conditions: PHD2 (residues 181-417) 5 nM, 60 min pre-incubation, -log(IC50), IC50 molar
Method in brief: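 Hydroxylated peptide quantified by LC/MS after 60 min turnover of 1 uM biotinylated peptide with 2 uM 2-oxoglutarate and 1 mM ascorbate, stopped by excess tight-binding inhibitor. Beforehand, 5 nM enzyme and compound were preincubated 60 min at RT, pH 7.3 HEPES/KCl/TCEP/FeCl2/BSA buffer. Values as pIC50 (−log molar IC50).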

[2] = tested on: HIF1a protein in H9c2 rat cardiomyocytes; experiment: Cell-based HIF-alpha stabilization assay (inhibition of PHD in cells); conditions: Rattus norvegicus, H9c2, 24 h, 24 hrs compound incubation, HIF1a protein by ELISA, read-out: Inhibition of PHD in cells (pEC50) (converted)
Method in brief: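 HIF1a stabilization was measured by ELISA on lysates of H9c2 rat cardiomyocytes after 24 h exposure to 11 serial compound concentrations, expressed relative to the desferrioxamine maximum. Curve fits gave EC50. EC50pos denotes the concentration producing half the desferrioxamine maximal response.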

PHD2 enzyme (residues 181-417), sequence (Q9GZT9 181-417): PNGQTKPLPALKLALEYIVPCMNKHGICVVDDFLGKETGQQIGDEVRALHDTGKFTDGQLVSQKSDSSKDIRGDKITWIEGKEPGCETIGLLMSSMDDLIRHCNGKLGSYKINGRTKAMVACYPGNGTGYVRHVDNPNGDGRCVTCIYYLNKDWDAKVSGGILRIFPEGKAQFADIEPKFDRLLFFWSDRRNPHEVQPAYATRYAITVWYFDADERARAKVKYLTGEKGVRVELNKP

SMILES | PHD Inhibition (pIC50) [1] | IC50 ([1]; read-out: PHD Inhibition (pIC50) (converted)) | EC50 [2]
CCN(CC)C1CCCN(C(=O)c2ccc(-n3ncc(-c4ccc(C#N)cc4C)c3O)nc2)C1 (centres unmarked) [Example 380, 4-(1-(5-(3-(diethylamino)piperidine-1-carbonyl)pyridin-2-yl)-5-hydroxy-1H-pyrazol-4-yl)-3-methylbenzonitrile] | 8.17 |  | 575 nM
Cc1cc(C#N)ccc1-c1cnn(-c2ccc(C(=O)N3CCC[C@H](N4CCCC4)C3)cn2)c1O [Example 381, (S)-4-(5-hydroxy-1-(5-(3-(pyrrolidin-1-yl)piperidine-1-carbonyl)pyridin-2-yl)-1H-pyrazol-4-yl)-3-methylbenzonitrile] | 7.94 |  | 1070 nM
CCN(C)[C@@H]1CCCN(C(=O)c2ccc(-n3ncc(-c4ccc(C#N)cc4C)c3O)nc2)C1 [Example 382, (R)-4-(1-(5-(3-(ethyl(methyl)amino)piperidine-1-carbonyl)pyridin-2-yl)-5-hydroxy-1H-pyrazol-4-yl)-3-methylbenzonitrile] | 8.00 |  | 977 nM
Cc1cc(C#N)ccc1-c1cnn(-c2ccc(C(=O)N3CCC[C@@H](N4CCCC4)C3)cn2)c1O [Example 387, (R)-4-(5-hydroxy-1-(5-(3-(pyrrolidin-1l-yl)piperidine-1-carbonyl)pyridin-2-yl)-1H-pyrazol-4-yl)-3-methylbenzonitrile] | 7.91 |  | 871 nM
Cc1cc(C#N)c(F)cc1-c1cnn(-c2ccc(C(=O)N3CC(N(C)C)C3)cn2)c1O [Example 394, 4-(1-(5-(3-(dimethylamino)azetidine-1-carbonyl)pyridin-2-yl)-5-hydroxy-1H-pyrazol-4-yl)-2-fluoro-5-methylbenzonitrile] | 7.88 |  | 2820 nM
CCN1CCN(C(=O)c2ccc(-n3ncc(-c4cc(F)c(C#N)cc4C)c3O)nc2)C[C@H]1C [Example 395, (R)-4-(1-(5-(4-ethyl-3-methylpiperazine-1-carbonyl)pyridin-2-yl)-5-hydroxy-1H-pyrazol-4-yl)-2-fluoro-5-methylbenzonitrile] | 8.48 |  | 2630 nM
Cc1cc(C#N)c(F)cc1-c1cnn(-c2ccc(C(=O)N3CCN(C)CC3)cn2)c1O [Example 396, 2-fluoro-4-(5-hydroxy-1-(5-(4-methylpiperazine-1-carbonyl)pyridin-2-yl)-1H-pyrazol-4-yl)-5-methylbenzonitrile] | 8.59 |  | 2090 nM
CCN1CCN(C(=O)c2ccc(-n3ncc(-c4cc(F)c(C#N)cc4C)c3O)nc2)C[C@@H]1C [Example 397, (S)-4-(1-(5-(4-ethyl-3-methylpiperazine-1-carbonyl)pyridin-2-yl)-5-hydroxy-1H-pyrazol-4-yl)-2-fluoro-5-methylbenzonitrile] | 8.52 |  | 1620 nM
Cc1cc(C#N)c(F)cc1-c1cnn(-c2ccc(C(=O)N3CCOCC3)cn2)c1O [Example 398, 2-fluoro-4-(5-hydroxy-1-(5-(morpholine-4-carbonyl)pyridin-2-yl)-1H-pyrazol-4-yl)-5-methylbenzonitrile] | 8.65 |  | 1950 nM
Cc1cc(C#N)c(F)cc1-c1cnn(-c2ccc(C(=O)N3CCN(C)C4(CC4)C3)cn2)c1O [Example 399, 2-fluoro-4-(5-hydroxy-1-(5-(4-methyl-4,7-diazaspiro[2.5]octane-7-carbonyl)pyridin-2-yl)-1H-pyrazol-4-yl)-5-methylbenzonitrile] | 8.63 |  | 1700 nM
Cc1cc(C#N)c(F)cc1-c1cnn(-c2ccc(C(=O)N3CCN(C)[C@@H](C)C3)cn2)c1O [Example 400, (S)-4-(1-(5-(3,4-dimethylpiperazine-1-carbonyl)pyridin-2-yl)-5-hydroxy-1H-pyrazol-4-yl)-2-fluoro-5-methylbenzonitrile] | 8.50 |  | 1660 nM
Cc1cc(C#N)c(F)cc1-c1cnn(-c2ccc(C(=O)N3CCN(C)[C@H](C)C3)cn2)c1O [Example 401, (R)-4-(1-(5-(3,4-dimethylpiperazine-1-carbonyl)pyridin-2-yl)-5-hydroxy-1H-pyrazol-4-yl)-2-fluoro-5-methylbenzonitrile] | 8.44 |  | 1580 nM
COCCCNC(=O)c1ccc(-n2ncc(-c3ccc(C#N)c(C)c3)c2O)nc1 [Example 402, 6-(4-(4-cyano-3-methylphenyl)-5-hydroxy-1H-pyrazol-1-yl)-N-(3-methoxypropyl)nicotinamide] | 7.99 |  | 4370 nM
COCCCNC(=O)c1ccc(-n2ncc(-c3cc(C)c(C#N)cc3C)c2O)nc1 [Example 403, 6-(4-(4-cyano-2,5-dimethylphenyl)-5-hydroxy-1H-pyrazol-1-yl)-N-(3-methoxypropyl)nicotinamide] | 7.78 |  | 1860 nM
COCCCNC(=O)c1ccc(-n2ncc(-c3c(C)cc(C#N)cc3F)c2O)nc1 [Example 404, 6-(4-(4-cyano-2-fluoro-6-methylphenyl)-5-hydroxy-1H-pyrazol-1-yl)-N-(3-methoxypropyl)nicotinamide] | 8.01 |  | 631 nM
COCCCNC(=O)c1ccc(-n2ncc(-c3cc(F)c(C#N)cc3C)c2O)nc1 [Example 405, 6-(4-(4-cyano-5-fluoro-2-methylphenyl)-5-hydroxy-1H-pyrazol-1-yl)-N-(3-methoxypropyl)nicotinamide] | 8.48 |  | 324 nM
COCCCNC(=O)c1ccc(-n2ncc(-c3ccc(C#N)c(F)c3C)c2O)nc1 [Example 406, 6-(4-(4-cyano-3-fluoro-2-methylphenyl)-5-hydroxy-1H-pyrazol-1-yl)-N-(3-methoxypropyl)nicotinamide] | 8.49 |  | 191 nM
COCCCNC(=O)c1ccc(-n2ncc(-c3ccc(C#N)c(C)c3C)c2O)nc1 [Example 409, 6-(4-(4-cyano-2,3-dimethylphenyl)-5-hydroxy-1H-pyrazol-1-yl)-N-(3-methoxypropyl)nicotinamide] | 8.24 |  | 257 nM
COCCCNC(=O)c1ccc(-n2ncc(-c3ccc(C#N)cc3COC)c2O)nc1 [Example 410, 6-(4-(4-cyano-2-(methoxymethyl)phenyl)-5-hydroxy-1H-pyrazol-1-yl)-N-(3-methoxypropyl)nicotinamide] | 8.07 |  | 513 nM

Continued, in another order:

PHD Inhibition (pIC50) [1] | IC50 ([1]; read-out: PHD Inhibition (pIC50) (converted)) | SMILES | EC50 [2]
8.20 |  | Cc1cc(C#N)ccc1-c1cnn(-c2ccc(C(=O)N3CCN(C(C)C)[C@H](C)C3)cn2)c1O [Example 379, (R)-4-(5-hydroxy-1-(5-(4-isopropyl-3-methylpiperazine-1-carbonyl)pyridin-2-yl)-1H-pyrazol-4-yl)-3-methylbenzonitrile] | 794 nM
8.28 |  | Cc1cc(C#N)ccc1-c1cnn(-c2ccc(C(=O)N3CCC[C@@H](N(C)C4CC4)C3)cn2)c1O [Example 383, (R)-4-(1-(5-(3-(cyclopropyl(methyl)amino)piperidine-1-carbonyl)pyridin-2-yl)-5-hydroxy-1H-pyrazol-4-yl)-3-methylbenzonitrile] | 1100 nM
7.93 |  | CCN(C)[C@H]1CCCN(C(=O)c2ccc(-n3ncc(-c4ccc(C#N)cc4C)c3O)nc2)C1 [Example 384, (S)-4-(1-(5-(3-(ethyl(methyl)amino)piperidine-1-carbonyl)pyridin-2-yl)-5-hydroxy-1H-pyrazol-4-yl)-3-methylbenzonitrile] | 1510 nM
8.18 |  | Cc1cc(C#N)ccc1-c1cnn(-c2ccc(C(=O)N3CCN(C)C[C@H]3C)cn2)c1O [Example 385, (R)-4-(1-(5-(2,4-dimethylpiperazine-1-carbonyl)pyridin-2-yl)-5-hydroxy-1H-pyrazol-4-yl)-3-methylbenzonitrile] | 955 nM
8.25 |  | CCN1CCN(C(=O)c2ccc(-n3ncc(-c4ccc(C#N)cc4C)c3O)nc2)C[C@H]1C [Example 388, (R)-4-(1-(5-(4-ethyl-3-methylpiperazine-1-carbonyl)pyridin-2-yl)-5-hydroxy-1H-pyrazol-4-yl)-3-methylbenzonitrile] | 513 nM
8.20 |  | Cc1cc(C#N)ccc1-c1cnn(-c2ccc(C(=O)N3CCN(C4CC4)[C@@H](C)C3)cn2)c1O [Example 389, (S)-4-(1-(5-(4-cyclopropyl-3-methylpiperazine-1-carbonyl)pyridin-2-yl)-5-hydroxy-1H-pyrazol-4-yl)-3-methylbenzonitrile] | 1150 nM
8.29 |  | Cc1cc(C#N)ccc1-c1cnn(-c2ccc(C(=O)N3CCN(C)C4(CC4)C3)cn2)c1O [Example 390, 4-(5-hydroxy-1-(5-(4-methyl-4,7-diazaspiro[2.5]octane-7-carbonyl)pyridin-2-yl)-1H-pyrazol-4-yl)-3-methylbenzonitrile] | 955 nM
8.20 |  | Cc1cc(C#N)ccc1-c1cnn(-c2ccc(C(=O)N3CCN(C)[C@H](C)C3)cn2)c1O [Example 392, (R)-4-(1-(5-(3,4-dimethylpiperazine-1-carbonyl)pyridin-2-yl)-5-hydroxy-1H-pyrazol-4-yl)-3-methylbenzonitrile] | 355 nM
 | 13.8 nM | Cc1cc(C#N)ccc1-c1cnn(-c2ccc(C(=O)N3CCN(C(C)C)[C@@H](C)C3)cn2)c1O [Example 393, (S)-4-(5-hydroxy-1-(5-(4-isopropyl-3-methylpiperazine-1-carbonyl)pyridin-2-yl)-1H-pyrazol-4-yl)-3-methylbenzonitrile] | 1450 nM
